{
  "source": "patent US20240294876A1",
  "about": "“METHODS FOR THE EXPANSION OF HUMAN GRANULOCYTE-MACROPHAGE PROGENITORS AND APPLICATIONS THEREOF” (University of Southern California, priority 2021, published 2024)",
  "key": {"[1]": {"system": "mouse GMPs", "assay": "Ex vivo expansion of mouse bone marrow-derived cells / mouse GMPs", "type": "cell-based", "from_the_text": "(A) Schematic of the experimental design to identify growth factors and small molecules that can promote expansion of mouse bone marrow-derived stem cells. (B) Representative phase-contrast images of mouse bone marrow cells cultured in N2B27 supplemented with the indicated small molecule inhibitors for 7 days. (C) Representative phase-contrast images of mouse bone marrow cells cultured in N2B27 supplemented with SCF plus GDC0879 or SB590885 for 3 passages. (D) Cell growth curves. Bone marrow cells isolated from C57BL/6J mice were plated into 24-well plates at a density of 2×10^5 cells/well and cultured in B7 medium supplemented with the indicated small molecules/growth factor. Cells were counted and passaged every 3 days. Data are represented as mean±SD from three independent experiments. (E) Bone marrow cells isolated from C57BL/6J mice were cultured in B7 medium supplemented with SCF/2i. Cells were passaged every 3 days. Representative phase-contrast pictures showing SCF/2i cells at different passages. (F) Cytogenetic analysis of SCF/2i cells using the GWT banding method. Bone marrow cells isolated from a female C57BL/6J mouse were expanded in SCF/2i for 8 passages before used for cytogenetic analysis. […] (G) Sequential images of individual bone marrow cells during expansion in B7 medium supplemented with SCF/2i. SCF/2i-expanded bone marrow cells were plated into 96-well plates at a density of 50 cells/well and cultured in SCF/2i. Sequential images were taken using the Keyence BZ-X710 microscopy every 24 hours. 15.7±4.0 colonies formed per well on day 4 (n=3×96). Data are represented as mean±SD from three independent experiments.\nMouse GMP derivation, expansion, and differentiation. Cells were cultured at 37° C. in a 5% CO2 water jacket incubator (Thermo Scientific). Bone marrow cells isolated from C57BL/6J, mTmG or CAG-Cas9-EGFP mice were plated into 6-well plates at a density of 2×10^6 cells/well and cultured in 2 mL B7 medium supplemented with 50 ng/mL SCF, 1 μM GDC-0879, and 10 μM SKL2001 (SCF/2i). After 3-4 days, cells were dissociated into single-cell suspension by pipetting up and down and replated into 6-well plates at a density of 2×10^6 cells/well and cultured in 2 mL B7 medium supplemented with SCF/2i. After 2 passages in SCF/2i, the majority of cells were GMPs. GMPs were routinely passaged every 3 days. To induce differentiation, GMPs were plated into 10 cm tissue culture dishes and cultured in RPMI-1640 medium containing 10% FBS and supplemented with either 20 ng/mL M-CSF (for macrophage differentiation) or 20 ng/mL G-CSF (for granulocyte differentiation). GMP-derived macrophages were harvested on day 7 (medium was changed once on day 4) and GMP-derived granulocytes were harvested on day 3 and used for the further experiments.\nDevelopment of defined conditions for the long-term ex vivo expansion of hematopoietic stem/progenitor cells. To develop conditions for the long-term expansion of stem or progenitor cells of the hematopoietic system, screening was conducted to identify small molecules and growth factors/cytokines that can promote their ex vivo expansion (see FIG. 3A). Specifically, bone marrow cells isolated from adult C57BL/6 mice were plated into 96-well plates in serum-free N2B27 medium. Then a first-round small molecule screening was performed. It was reasoned that if a small molecule can block differentiation or promote expansion of stem cells, these stem cells should form colonies with a uniform cell morphology. […] Upon passaging, however, no new colonies were formed in culture with any of the 5 small molecule inhibitors. A second-round screening was conducted to identify growth factors/cytokines that could further improve the expansion of the colonies.\nMore importantly, these cells could be expanded robustly at clonal density (see FIG. 3G).\nSCF/2i-expanded cells are GMPs. […]"}, "[2]": {"system": "human GMPs", "assay": "Ex vivo expansion of human GMPs sorted from cord blood", "type": "cell-based", "conditions": "added to SCF/GDC-0879", "from_the_text": "(A) Growth curves of human GMPs. Human GMPs were FACS sorted from cord blood and cultured in the designated conditions. Cells were passaged every 3 days and replated into 12-well plates at a density of 1×10^5 cells/well. Data are represented as mean±SD from three independent experiments. (B) Structure of TN-2-30. (C) Representative phase-contrast images of human GMPs cultured in modified SCF/2i. P, passage number. (D) Sorted human GMPs were expanded in modified SCF/2i and induced to differentiate towards granulocytes by treatment with 30 ng/ml human G-CSF for 10 days. Differentiated cells were analyzed by Giemsa staining (upper panel) and flow cytometry (lower panel). Flow cytometry data are represented as mean±SD from three independent experiments. (E) Relative MPO activities of human GMPs and human GMP-derived granulocytes stimulated with or without PMA for 2 hours. Differentiated cells generated in (D) were plated into 96-well plates at a density of 2×10^4 cells/well and stimulated with or without PMA for 2 hours, after which MPO activities in the supernatants were measured. Data are represented as mean±SD from three independent experiments. […] (H) Differentiated cells generated in (D) and (F) were plated into 96-well plates at a density of 2×10^4 cells/well and stimulated with or without 500 ng/ml LPS for 6 hours, after which cytokine secretion in the supernatants was measured by ELISA. […]"}},
  "data": [
    {"molecule": "O=C(NCCCn1ccnc1)c1cc(-c2ccco2)on1", "note": "[SKL2001]", "values": [
      {"measurement": "long-term expansion of a uniform cell population", "setting": "[1]; combined with SCF and GDC-0879", "value": "allowed for the long-term expansion"},
      {"measurement": "interaction with GDC-0879 in promoting expansion of the uniform round-shaped cells", "setting": "[1]; second screening, with GDC-0879", "value": "acted synergistically"},
      {"measurement": "requirement for expansion of β-catenin knockout mouse GMPs", "setting": "[1]; β-catenin knockout mouse GMPs", "value": "still required the addition of SKL2001"},
      {"measurement": "effect of addition on expansion of human GMPs", "setting": "[2]", "value": "only marginally improved"}
    ]}
  ]
}
